The source made the active and inactive calls. The rule behind the calls is not given here.
Each molecule was assayed against Nuclear receptor coactivator 1 (Homo sapiens) (UniProt Q15788) (assay: SRC1 (NCOA1) coactivator inhibitors, dose response, cell-based, luciferase reporter, luminescence (AID 602235);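 note: cells transfected with pGL4.31 reporter plus pBIND-SRC1 vector; potency is for inhibitors that lower SRC1 reporter luminescence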).
Nuclear receptor coactivator 1 (Homo sapiens), sequence (Q15788 whole entry, looked up): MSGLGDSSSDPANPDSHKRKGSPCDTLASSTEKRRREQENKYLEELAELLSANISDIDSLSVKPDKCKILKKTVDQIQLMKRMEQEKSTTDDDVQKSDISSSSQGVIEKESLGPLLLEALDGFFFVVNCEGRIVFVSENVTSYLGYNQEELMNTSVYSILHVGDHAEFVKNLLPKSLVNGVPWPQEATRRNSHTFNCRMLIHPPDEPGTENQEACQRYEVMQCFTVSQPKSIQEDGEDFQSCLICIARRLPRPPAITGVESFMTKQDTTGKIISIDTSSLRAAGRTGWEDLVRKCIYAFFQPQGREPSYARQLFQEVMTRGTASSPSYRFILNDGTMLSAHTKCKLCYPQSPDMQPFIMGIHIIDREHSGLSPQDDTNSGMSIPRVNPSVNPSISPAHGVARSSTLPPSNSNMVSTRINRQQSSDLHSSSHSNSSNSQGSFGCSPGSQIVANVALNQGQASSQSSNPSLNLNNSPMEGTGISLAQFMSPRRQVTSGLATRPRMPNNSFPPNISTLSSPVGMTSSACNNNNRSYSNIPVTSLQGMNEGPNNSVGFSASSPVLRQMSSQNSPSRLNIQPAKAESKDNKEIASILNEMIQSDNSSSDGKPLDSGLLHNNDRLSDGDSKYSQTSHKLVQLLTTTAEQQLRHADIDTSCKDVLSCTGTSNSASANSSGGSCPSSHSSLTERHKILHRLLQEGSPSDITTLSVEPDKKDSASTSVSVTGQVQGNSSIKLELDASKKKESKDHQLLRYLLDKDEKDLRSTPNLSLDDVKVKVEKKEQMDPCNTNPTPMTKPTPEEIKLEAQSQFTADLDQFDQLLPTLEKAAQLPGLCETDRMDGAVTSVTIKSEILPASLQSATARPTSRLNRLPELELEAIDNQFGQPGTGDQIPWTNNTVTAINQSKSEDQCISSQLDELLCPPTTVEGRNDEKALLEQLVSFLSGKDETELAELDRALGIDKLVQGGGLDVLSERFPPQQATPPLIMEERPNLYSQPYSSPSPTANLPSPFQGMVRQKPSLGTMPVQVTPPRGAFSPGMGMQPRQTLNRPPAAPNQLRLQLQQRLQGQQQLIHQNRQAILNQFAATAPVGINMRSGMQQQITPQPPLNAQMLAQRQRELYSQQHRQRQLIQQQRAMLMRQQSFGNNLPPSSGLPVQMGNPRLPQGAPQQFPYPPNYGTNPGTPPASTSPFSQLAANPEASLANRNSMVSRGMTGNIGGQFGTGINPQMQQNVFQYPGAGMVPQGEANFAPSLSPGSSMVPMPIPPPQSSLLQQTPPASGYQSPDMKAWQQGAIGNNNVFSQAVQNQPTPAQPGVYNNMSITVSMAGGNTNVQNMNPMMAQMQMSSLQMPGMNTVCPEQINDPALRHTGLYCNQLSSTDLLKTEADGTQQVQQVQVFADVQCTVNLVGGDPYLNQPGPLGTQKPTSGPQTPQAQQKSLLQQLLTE

Row | SMILES | IC50
1 | C=CCn1c(Oc2ccccc2F)nc2c1c(=O)n(C)c(=O)n2C | inactive
2 | c1ccc(-c2csc3ncnc(NCCN4CCOCC4)c23)cc1 | inactive
3 | CC(C)n1c(SCC(=O)Nc2nc3c(s2)CCCC3)nc2c1c(=O)n(C)c(=O)n2C | inactive
4 | COc1ccccc1N(C(=O)CCl)c1cn(C(C)=O)c2ccccc12 | > 35.9 µM (inactive)
5 | COc1cccc(/C=N/NC(=O)C(=O)Nc2ccccc2OC(F)(F)C(F)F)c1O | 5.69 µM
6 | CCn1c(Oc2ccc(F)cc2)nc2c1c(=O)n(C)c(=O)n2C | > 12 µM (inactive)
7 | COc1cc(C(=O)N/N=C(\c2ccccc2)c2ccccn2)cc(OC)c1OC | > 11.9 µM (inactive)
8 | O=C(Nc1ccncc1)c1ccccc1[N+](=O)[O-] | 9.54 µM
9 | COc1ccc(NC(=O)CN(C)C(=O)C2(c3ccccc3)CCCC2)cc1 | inactive
10 | Fc1cccc(CSc2nnc3ccc(-c4ccncc4)nn23)c1 | > 35.8 µM (inactive)
11 | O=C1CCC2S/C(=C/Nc3ccc(C(F)(F)F)cc3)C(=O)N12 (configuration not stated) | > 35.9 µM (inactive)
12 | CCCCC(=O)Nc1cccn2ncnc12 | inactive
13 | O=C(Nc1cccnc1)c1ccc(C(=O)Nc2cccnc2)cc1 | > 35.9 µM (inactive)
14 | S=C(c1ccc(-c2ccccc2)cc1)N1CCOCC1 | > 35.8 µM (inactive)
15 | CC(=O)C1=C(C)NC2=C(C(=O)CC(C)(C)C2)C1C (configuration not stated) | inactive
16 | Cc1ccc2occ(/C=N/NC(=O)c3ccncc3)c(=O)c2c1 | inactive
17 | OCCN1CCN(C(=S)c2ccc(-c3ccccc3)cc2)CC1 | > 35.9 µM (inactive)
18 | N#Cc1cc2ccncc2c2ccccc12 | > 35.9 µM (inactive)
19 | COc1cc2c(cc1OC)C(NC(=O)C(F)(F)F)CNC2=O (configuration not stated) | 6.97 µM
20 | Cc1ccc(C)c(NC(=O)c2ccccc2NS(=O)(=O)c2cc([N+](=O)[O-])ccc2C)c1 | 4.81 µM
21 | CN(CC(=O)Nc1ccc(Cl)c(C(F)(F)F)c1)C(=O)C1CC(=O)N(c2ccc3c(c2)OCCO3)C1 (configuration not stated) | inactive
22 | O=C(CCn1cnc(-c2ccccc2)c1-c1ccccc1)N/N=C/c1ccccc1O | inactive

Row | SMILES | IC50
23 | Cc1c(/C(O)=C2/C(=O)C(=O)N(Cc3cccnc3)C2c2ccccn2)cnn1-c1ccccc1 (configuration not stated) | inactive
24 | COc1ccc(Cc2nnc(SCc3ccc([N+](=O)[O-])cc3)o2)cc1 | inactive
25 | c1nc2sc3c(c2c2nnnn12)CCCC3 | inactive
26 | CN(Cc1cnc2nc(N)nc(N)c2n1)c1ccc(C(=O)N[C@@H](CCC(=O)O)C(=O)O)cc1 | > 35.9 µM (inactive)
27 | O=C(Nc1cccc(C(F)(F)F)c1)Nc1nnc([C@@H]2C[C@H](O)[C@@H](CO)O2)s1 | 9.55 µM
28 | COc1ccc(/C=C2/SC(=S)N(CCC(=O)O)C2=O)cc1 | > 35.9 µM (inactive)
29 | O=C(CCl)N1N=C(c2ccco2)CC1c1ccco1 (configuration not stated) | 5.7 µM
30 | Cn1nc(C(F)(F)F)c(C#N)c1N1CCN(c2ccccc2)CC1 | 7.05 µM
31 | N#Cc1c2ccc(O)cc2n2ccccc12 | > 35.9 µM (inactive)
32 | COc1ccc(Nc2ncnc3ccc(Br)cc23)c(OC)c1 | 2.44 µM
33 | CCOC(=O)CC(=O)CSc1nccc(-c2cccnc2)n1 | inactive
34 | Cc1cc(/C=C2\Cc3ccccc3C2=O)c(C)n1-c1ccccc1 | > 35.9 µM (inactive)
35 | Cc1cccc(C)c1-n1nnnc1C(c1cccs1)N1CCC2(CC1)C(=O)NCN2c1ccccc1 (configuration not stated) | inactive
36 | COc1cccc(C2=CC(=O)CC(C)(C)C2)c1 | inactive
37 | O=C1NCCc2c1[nH]c1ccc([N+](=O)[O-])cc21 | inactive
38 | c1cc2c(cn1)cnc1cscc12 | inactive
39 | CN(C)c1ccc(Nc2ncnc3ccc(Br)cc23)cc1 | 9.96 µM
40 | Cc1c2ccncc2cc2c1[nH]c1ccccc12 | > 35.9 µM (inactive)
41 | Cc1ccc(/C=C2\SC(=S)N(CCCC(=O)NC3CCCC3)C2=O)cc1 | 3.37 µM
42 | CC(=O)c1cccc(NC(=O)COc2cc3oc(=O)c(CC(C)O)c(C)c3cc2Cl)c1 (configuration not stated) | > 35.9 µM (inactive)
43 | Cc1sc2ncnc(N3CCC(C(=O)N(C)CC(=O)Nc4cccc(F)c4)CC3)c2c1C | > 12 µM (inactive)
44 | NS(=O)(=O)c1ccc(Nc2nc(-c3cccnc3)cs2)cc1 | > 35.8 µM (inactive)

Row | SMILES | IC50
45 | CCN(c1ccccc1)S(=O)(=O)c1cc(C(=O)Nc2ccc(Br)cc2)ccc1F | > 12 µM (inactive)
46 | CCOC(=O)c1cccc2c1-c1ccccc1/C2=N/O | 7.13 µM
47 | c1ccc(-c2nnc(-c3ccccn3)nc2NC2CCCCC2)cc1 | 5.22 µM
48 | Nc1ccn(C2OC(CO)C(O)C2O)c(=O)n1 (configuration not stated) | > 11.9 µM (inactive)
49 | O=C(CCCOc1ccc(Cl)cc1Cl)N/N=C/c1ccccc1O | 6.73 µM
50 | CC(=O)c1cc2c(C)cc(=O)oc2cc1O | > 35.9 µM (inactive)
51 | CC(NC(=O)COC(=O)c1cccs1)c1ccccc1 (configuration not stated) | > 35.9 µM (inactive)
52 | CC[C@@]1(O)C(=O)OCc2c1cc1n(c2=O)Cc2cc3c(NC(=O)CN)cccc3nc2-1 | > 35.9 µM (inactive)
53 | CC1CCN(C(=O)c2scc3c2OCCO3)CC1 | inactive
54 | CCN(C(=O)c1cccc(S(=O)(=O)N(C)C)c1)C12CC3CC(CC(C3)C1)C2 | > 35.9 µM (inactive)
55 | C=C1C(=O)[C@@]23C[C@H]4[C@@H]5[C@@]6(C)CCC[C@@]57[C@@H]2[C@@H](O)[C@@H]1C[C@H]3[C@H]7N4C6 | 3.71 µM
56 | COc1ccc2c(=O)cc(-c3ccncc3)oc2c1OC | inactive
57 | CC1CCCCN1c1ncnc2ccccc12 (configuration not stated) | > 35.9 µM (inactive)
58 | CCCCCCCC[n+]1c(C)n(-c2ccccc2)c2ccc(NC(C)=O)cc21 | > 35.9 µM (inactive)
59 | COC(CN(C(=O)CCl)C(C(=O)NC1CCCCC1)c1ccccc1C)OC (configuration not stated) | 9.53 µM
60 | COc1ccc(C(O)(C(C)C)C(CN2CCOCC2)c2ccc(Cl)cc2)cc1 (configuration not stated) | inactive
61 | Nc1ccn([C@@H]2O[C@H](CO)[C@@H](O)C2O)c(=O)n1 (some centres not stated) | inactive
62 | CC(C)(C)NC(=O)C1(C)CCC(=O)N1CCCn1ccnc1 (configuration not stated) | inactive
63 | Cc1nc2c(-c3ccc(Cl)cc3)c(C)[nH]n2c(=O)c1Cc1ccccc1 | 9.38 µM
64 | O=C(c1ccncc1)N(Cc1cc2ccccc2[nH]c1=O)C1CCCCC1 | inactive
65 | CC(C)(C)c1cc(C(=O)N/N=C/c2ccc(O)cc2)n(-c2ccccc2)n1 | > 35.9 µM (inactive)
66 | CCc1ccc(-c2nc(CSCC(=O)NCc3ccco3)c(C)o2)cc1 | > 35.9 µM (inactive)

Row | SMILES | IC50
67 | Fc1ccc(CSc2nnc(-c3ccncc3)o2)cc1 | 6.06 µM
68 | COc1ccc(-c2cc(=O)oc3c(C)c(O)c(CN(C)C)cc23)cc1 | inactive
69 | S=C(Nc1ccccc1)Nc1ccc(OCc2ccc(Cl)cc2Cl)cc1 | 4.26 µM
70 | CCOc1cc(C(N)=O)cc(Br)c1OC | inactive
71 | C=CCNc1ncnc2ccc(Br)cc12 | 6.79 µM
72 | CCC(C)(C)n1nnnc1CN1CCC(n2c(C)nc3cc(C(F)(F)F)ccc32)CC1 | > 35.9 µM (inactive)
73 | COc1ccccc1NS(=O)(=O)c1cccc(NC(=O)c2cncc(Br)c2)c1 | inactive
74 | O=c1ccc2c(ccc3ncccc32)o1 | inactive
75 | Cc1ccc(O)c(C(=O)c2cnn(C(=O)COc3ccc(Cl)cc3)c2)c1 | inactive
76 | Cn1c(=O)c2[nH]c(COc3ccc(C(C)(C)C)cc3)nc2n(C)c1=O | inactive
77 | O=C(Nc1nc(-c2ccccn2)cs1)c1cccc(-n2cnnn2)c1 | inactive
78 | COC(=O)N(NC(=O)C(O)(CCC(C)C)CCC(C)C)c1ccccc1 | > 35.9 µM (inactive)
79 | CC1(C)Cc2c(ccc3ccccc23)C(=O)N1 | inactive
80 | O=C(N/N=C/c1ccccc1O)/C(=C/c1ccccc1)CCO | inactive
81 | Cc1ccc2occ(/C=N/NC(=O)[C@@H](N)Cc3ccccc3)c(=O)c2c1 | 8.08 µM
82 | COC(=O)c1sc2cnccc2c1N | inactive
83 | O=C(Nc1cccc(Cl)c1)Nc1nnc(-c2ccncc2)s1 | 8 µM
84 | O=C(NC(=S)Nc1ccc(N2CCN(C(=O)c3ccccc3)CC2)cc1)c1cccs1 | inactive
85 | O=C(O)CN1C(=O)/C(=C\c2ccccc2OCc2ccc(Cl)cc2Cl)SC1=S | inactive
86 | CN(Cc1cnc2nc(N)nc(N)c2n1)c1ccc(C(=O)NC(CCC(=O)O)C(=O)O)cc1 (configuration not stated) | > 35.9 µM (inactive)
87 | CCN1CCN(C(=S)c2ccc(-c3ccccc3)cc2)CC1 | > 35.9 µM (inactive)
88 | Oc1ccc(C=NNc2ccccn2)c(O)c1 | inactive

Row | SMILES | IC50
89 | O=C(NC1CCCCC1)C(c1cccnc1)N(C(=O)CCl)c1cccc(Cl)c1 (configuration not stated) | 6.91 µM
90 | CN1CCN(c2cccc3c2C(=O)c2ccccc2C3=O)CC1 | > 35.9 µM (inactive)
91 | COc1ccc(OC)c(/C=C2\NC(=O)NC2=O)c1 | 7.42 µM
92 | COc1ccc(-n2cnc3c(sc4nccc(N(C)C)c43)c2=O)cc1 | inactive
93 | NC(=S)NN=Cc1ccc(OC(=O)COc2cc(Cl)c(Cl)cc2Cl)cn1 | inactive
94 | COc1ccc2ncn(-c3ccccc3)c2c1 | 8.16 µM
95 | Cc1ccc(N(Cc2cc(=O)[nH]c3ccccc23)C(=O)CCl)c(C)c1 | 5.31 µM
96 | CN(Cc1cnc2nc(N)nc(N)c2n1)c1ccc(C(=O)NC(CCC(=O)O)C(=O)O)c2ccccc12 (configuration not stated) | > 35.9 µM (inactive)
97 | CCn1c2ccccc2c2cnc(N=CN(C)C)c(C#N)c21 | inactive
98 | Cc1c(CC(=O)NCCCC(=O)O)c(=O)oc2cc3c(cc12)CCC(C)(C)O3 | inactive
99 | CCc1nc(N)nc(N)c1-c1ccc(Cl)c([N+](=O)[O-])c1 | 6.12 µM
100 | NC(=S)NN=Cc1nccc2c(N)cccc12 | inactive
101 | CC(=O)NC(c1cc(Cl)c2cccnc2c1O)C1CC1 (configuration not stated) | inactive
102 | CCN(CC(=O)Nc1ccc(NC(C)=O)cc1)C(=O)C1(c2ccc(Cl)cc2)CCC1 | inactive
103 | CN(c1ccc(C(=O)N2CCN(Cc3ccc4c(c3)OCO4)CC2)cc1)S(=O)(=O)c1ccccc1 | > 35.9 µM (inactive)
104 | COc1ccc2c(c1)-c1c(ssc1=S)C(C)(C)N2C(=O)CSC1=NCCS1 | inactive
105 | O=C(CCl)N(c1ccccc1)C1CCS(=O)(=O)C1 (configuration not stated) | 2.84 µM
106 | COc1cccc(NC(=O)CN(C)CC(=O)Nc2ccc(Cl)cc2[N+](=O)[O-])c1 | inactive
107 | CCCS(=O)(=O)c1c(S(=O)(=O)CCC)c2c(C)cccn2c1C(=O)N/N=C/c1cc(O)cc(O)c1 | inactive
